≈ marks a conversion by molar mass, not a printed value. Where two headings read alike, the source gives them in different places.
Key:
[1] = Semi-thermodynamic solubility; format: physicochemical; settings: for solubility / solubility thermodynamic: PBS, aqueous buffer, thermodynamic from solid; for solubility: Room Temp, Overnight, LC-MSMS; for solubility thermodynamic: overnight; for solubility thermodynamic / Solubility (class in words): summary sheet; for solubility (result in words): Supplementary Table 2
How it was run: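 Compound solution agitated overnight at ambient temperature, then centrifuged twice (30 min, 3000 rpm, RT). Supernatant diluted in 50% methanol/water with internal standard and quantified by LC–MS/MS. Solubility derived from a linear or quadratic fit of the standard curve.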

[2] = system: DAOY cells; test: Spheroid invasion assay (SIA), bFGF-induced collagen I invasion; format: cell-based, human; settings: for EC50: Daoy; for functional activity in SIA (result in words): DAOY, bFGF-induced, 1, 5 and 10 µM
How it was run: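 Spheroids formed over 24–72 h were embedded in collagen I (final 1.75 mg/ml) and stimulated with bFGF (100 ng/ml unless stated), HGF 30 ng/ml or EGF 20 ng/ml with compound in DMSO. Invasion distance was quantified 24–48 h after embedding.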

[3] = Microsomal metabolic stability; format: in vitro ADME; settings: human, pooled liver microsomes; for half-life at 1 µM: pH 7.4, liver microsomes; for microsomal CLint at 1 µM: pH 7.4, read-out: Metabolic stability - Intrinsic clearance (CI)
How it was run: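 Pooled liver microsomes were incubated with NADPH for 0, 5, 15, 30 and 45 min; the minus-NADPH control (0.1 M phosphate pH 7.4) ran 45 min only. Reactions were stopped in acetonitrile and analysed by LC–MS/MS. t1/2 = 0.693/k came from the ln peak-area-ratio versus time slope, and CLint (μl/min/mg protein) was derived from it.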

[4] = system: bFGF-sensitive (M059K, RT-112, SW780) and bFGF-insensitive (SKOV3, AGS and HCT116) cell lines; test: SIA, collagen I invasion in panel of human cancer cell models; format: cell-based; settings: 10 µM
Procedure: 1000—2500 cells/well in 100 μl were seeded in 96 well Corning® Spheroid microplate (CLS4520, Sigma-Aldrich) or in cell-repellent 96 well microplate (650,790, Greiner Bio-one). SIA and analysis was performed as described before. In brief: After spheroid formation (24 – 72 h after seeding), 70 µl medium was removed and replaced with the collagen mixture (2.5 mg/ml Pure Col Collagen I (Advanced Biomatrix)), DMEM 1x (from 10 × stock, Sigma, D2429) and 0.4% Sodium bicarbonate (Sigma, S8761)), resulting in a final collagen concentration of 1.75 mg/ml. Embedded spheroids were stimulated with bFGF (100 ng/ml if not otherwise stated), HGF (30 ng /ml) or EGF (20 ng/ml) and distance of invaded cells quantified 24 – 48 h after embedding. Compounds and BGJ398 were added in Dimethylsulfoxid (DMSO) and corresponding DMSO concentrations were used in control samples.

[5] = CaCo-2 permeability (bi-directional); settings: human
How it was run: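 Caco-2 monolayers (passage 40–60) cultured 20 days on Transwells, equilibrated 40 min in HBSS; compound dosed apically (A-B) or basolaterally (B-A) with 1% v/v DMSO and lucifer yellow integrity marker, in duplicate. LC–MS/MS quantification; Papp from permeation rate, C0 and monolayer area; efflux ratio = Papp(B-A)/Papp(A-B).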

[6] = system: HepG2 human hepatocellular carcinoma cells; test: Cell viability (cytotoxicity, MTT) using HepG2; format: cell-based; settings: for MEC: 72h, 3 replicas, NR = No response (Summary sheet); for MTT (MEC) Minimum effective concentration: 72 h, summary sheet
How it was run: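 Compounds were tested at 8 concentrations in triplicate on HepG2 cells plated 24 h beforehand, with 72 h exposure in 1% DMSO medium. MTT was loaded 1 h before the end, solubilized in DMSO and read at 570 nm. Minimum effective concentration is the lowest concentration exceeding the significance level, given dose-response or two consecutive points above it.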

[7] = read-out: Solubility Replicate 1
[8] = read-out: Solubility Replicate 2
[9] = read-out: Solubility Replicate 3
[10] = read-out: Solubility Replicate 4
[11] = Homo sapiens, DAOY cells, n = 3 technical replicas, read-out: EC50 for the inhibition of bFGF-induced collagen I invasion
[12] = Caco-2, Mean Papp A-B, Caco-2, summary sheet
[13] = Caco-2, Mean Papp B-A, Caco-2, summary sheet
[14] = Caco-2, pH 7.4, Mean % Recovery A2B, HBSS/HBSS, pH 7.4/7.4
[15] = Caco-2, pH 7.4, Mean % Recovery B2A, HBSS/HBSS, pH 7.4/7.4
[16] = Caco-2, pH 7.4, Mean Papp A2B, HBSS/HBSS, pH 7.4/7.4
[17] = Caco-2, pH 7.4, Mean Papp B2A, HBSS/HBSS, pH 7.4/7.4
[18] = Caco-2, pH 7.4, Papp A2B Replicate 1, HBSS/HBSS, pH 7.4/7.4
[19] = Caco-2, pH 7.4, Papp A2B Replicate 2, HBSS/HBSS, pH 7.4/7.4
[20] = Caco-2, pH 7.4, Papp B2A Replicate 1, HBSS/HBSS, pH 7.4/7.4
[21] = Caco-2, pH 7.4, Papp B2A Replicate 2, HBSS/HBSS, pH 7.4/7.4
[22] = read-out: t1/2 of clearance (CL1/2), in vitro

SMILES	solubility ([1]; read-out: Mean Solubility) [µM]	solubility [1, 7] [µM]	solubility [1, 8] [µM]	solubility [1, 9] [µM]	solubility [1, 10] [µM]	solubility thermodynamic [1] [µM]	Solubility (class in words) [1]	half-life at 1 µM ([3]; read-out: t1/2) [min]	microsomal CLint at 1 µM [3] [µL/min/mg]	collagen I invasion across cancer cell lines (result in words) [4]	efflux ratio at 120 min, 10 μM ([5]; Caco-2)	Papp A→B at 120 min, 10 μM [5, 12] [×10⁻⁶ cm/s]	Papp B→A at 120 min, 10 μM [5, 13] [×10⁻⁶ cm/s]	recovery at 120 min, 10 µM [5, 14] [%]	recovery at 120 min, 10 µM [5, 15] [%]	Papp B→A at 120 min, 10 μM [5, 17] [×10⁻⁶ cm/s]	Papp B→A at 120 min, 10 μM [5, 20] [×10⁻⁶ cm/s]	Papp B→A at 120 min, 10 μM [5, 21] [×10⁻⁶ cm/s]	MEC [6] [µM]	MTT (MEC) Minimum effective concentration [6] [µM]	also measured
COc1ncc(C(C)NC2CC(C)(C)NC(C)(C)C2)cc1Cl (stereo not drawn) [Compound 3.3]	> 100	> 100	> 100	> 100	> 100	> 100	Freely	3.91	355	significant repression of collagen I invasion only in SKOV3 and M059K cells	8.01	4.79	38.3	73.1	104	38.3	39.9	36.8	75.8	75.8	EC50 [2, 11]: 14.3 µM; efflux ratio at 120 min, 10 μM ([5]; Caco-2, pH 7.4): 8.01; Papp A→B at 120 min, 10 μM [5, 16]: 4.79 ×10⁻⁶ cm/s; Papp A→B at 120 min, 10 μM [5, 18]: 4.98 ×10⁻⁶ cm/s; Papp A→B at 120 min, 10 μM [5, 19]: 4.59 ×10⁻⁶ cm/s
O=[N+]([O-])c1c(Cl)cc(O)c2c1C1C=CCC1C(c1ccc(Cl)cc1)N2 (stereo not drawn) [Compound 7]	10.4 (≈ 3.92 µg/mL)	11.8 (≈ 4.45 µg/mL)	9.33 (≈ 3.52 µg/mL)	9.97 (≈ 3.76 µg/mL)	–	10.4 (≈ 3.92 µg/mL)	Sparingly	3.62	383	inhibited collagen I invasion in both bFGF-sensitive and bFGF-insensitive cell lines	2.84	3.59	10.2	15.3	37.8	10.2	8.39	12	4.38	4.38	solubility (result in words) [1]: sparingly soluble; functional activity in SIA (result in words) [2]: performed equally well as 3.18; EC50 ([2]; Homo sapiens, 100 ng/ml bFGF, read-out: Collagen I invasion EC50): 2.54 µM; IC50 ([2]; Homo sapiens, DAOY wt): 2.76 µM; half-life at 1 µM [3, 22]: 3.62 min; efflux ratio at 120 min, 10 μM ([5]; Caco-2, pH 7.4): 2.84; Papp A→B at 120 min, 10 μM [5, 16]: 3.59 ×10⁻⁶ cm/s; Papp A→B at 120 min, 10 μM [5, 18]: 3.41 ×10⁻⁶ cm/s; Papp A→B at 120 min, 10 μM [5, 19]: 3.76 ×10⁻⁶ cm/s; toxicity in the MTT assay (result in words) [6]: moderately toxic
N#Cc1c(Cl)cc(O)c2c1C1C=CCC1C(c1ccc(Cl)cc1)N2 (stereo not drawn) [Compound 14]	24.8 (≈ 8.86 µg/mL)	25 (≈ 8.93 µg/mL)	16.6 (≈ 5.93 µg/mL)	27.2 (≈ 9.72 µg/mL)	30.3 (≈ 10.8 µg/mL)	24.8 (≈ 8.86 µg/mL)	Sparingly	1.64	845	inhibited collagen I invasion in both bFGF-sensitive and bFGF-insensitive cell lines	–	–	2.31	81.1	50.7	2.31	3.4	1.22	3.93	3.93	functional activity in SIA (result in words) [2]: reduced invasion comparable to the parent compound 7
Cc1[nH]nc(-c2ccc(O)c(C)c2O)c1-c1nc2ccccc2s1 [Compound E12]	> 100	> 100	> 100	> 100	> 100	> 100	Freely	5.52	251	inhibited collagen I invasion only in bFGF-sensitive cell lines M059K, RT-112 and SW780	5.13	4.53	23.2	102	65.6	23.2	22	24.4	15.6	15.6	solubility (result in words) [1]: freely soluble; functional activity in SIA (result in words) [2]: comparable inhibition of invasion; EC50 [2, 11]: 18.2 µM; half-life at 1 µM [3, 22]: 5.52 min; efflux ratio at 120 min, 10 μM ([5]; Caco-2, pH 7.4): 5.13; Papp A→B at 120 min, 10 μM [5, 16]: 4.53 ×10⁻⁶ cm/s; Papp A→B at 120 min, 10 μM [5, 18]: 3.77 ×10⁻⁶ cm/s; Papp A→B at 120 min, 10 μM [5, 19]: 5.28 ×10⁻⁶ cm/s; toxicity in the MTT assay (result in words) [6]: moderate toxicity

— PMC10060354, “Discovery of a small molecule ligand of FRS2 that inhibits invasion and tumor growth” (Cellular Oncology, 2022)
